# Measured values taken from patent publication US6995140B1, “Peptides and polypeptides useful for regenerating the nervous system” (NUCLEICA, priority 1997, dated 2006).
# Where no end group is shown, it is not given here.
# Columns and labels:
# cortical neuronal cells = test: Dissociated cell cultures of cerebral hemispheres of 8-day old chicken embryos (cortical neurons); format: cell-based; settings: for overall effect on cortical neuron cultures (aggregation, adhesion, neuritic growth): in comparison with peptide SEQ ID NO: 8; for adherent cells carrying neurites relative to controls (controls 24.4%): 4 days of culture
# Method: Dissociated Cell Cultures of Cerebral Hemispheres of 8-Day Old Chicken Embryos
# The neuronal cultures are obtained from 8-day old chicken embryos. The cerebral hemispheres, after removing the meninges, are cut into small pieces and enzymatically dissociated with 0.25% of trypsin in a PBS saline buffer free of calcium and of magnesium for 15 minutes at 37° C.
# The cells are centrifuged at 200 g for 5 minutes in DMEM medium with 20% FCS for the trypsin inactivation. The cells are then filtered on nylon membrane (pore size: 48 microns) and collected in a chemically defined medium free of serum containing a 1/1 mixture of DMEM and Ham's F12 medium supplemented with glutamine (4 mM), glucose (33 mM), penicillin G (50 U/ml), streptomycin sulfate (50 μg/ml) and an N2 supplement of Bottenstein and Sato (1979): putrescine (100 μM), sodium selenite (30 nM), human transferrin (50 μg/ml), progesterone (20 nM), insulin (5 μg/ml) and β-estradiol (1 pM). All the N2 supplements were bought from Sigma.
# The cells are plated at a density of 7.5×10^4 cells/cm^2 on 24-well plastic plates. For some experiments, the plastic plates are coated either with fibronectin (24 μg/ml) or with thrombospondin (20 μg/ml). The cultures are incubated at 37° C. and under air containing 10% CO2. The medium is not changed during the experiment. These cultures consist of nearly 95% of neurons.
# Moreover, the effect of the peptides according to the present invention SEQ ID NO: 8 and NO: 11 on cultures at low density was studied.
# [1] = Solubility of the peptide; format: physicochemical; settings: basic aqueous medium
# [2] = system: NIB104 neuroblastoma cells; test: Culture of cells derived from the NIB104 neuroblastoma; format: cell-based
# Method: The cells derived from the NIB104 neuroblastoma were cultured in 24-well plastic plates previously coated with a film of poly-L-lysine, under conditions similar to those for the primary cultures.
# spinal cord neurons = test: Cell cultures of spinal neurons; format: cell-based, chicken; settings: compared with controls
# Method: Cell Cultures of Spinal Neurons
# The spinal cords of 6-day old chicken embryos are dissected, freed of their meningeal membrane and cut into small pieces in a phosphate buffer (PBS) free of calcium and of magnesium. After incubation with 0.25% trypsin for 10 minutes at 37° C., the tissue is centrifuged at 200 g for 4 minutes in a growth medium containing 20% fetal calf serum in order to stop the trypsinization. The cells are then dissociated by repeated trituration using a Pasteur pipette and resuspended in a chemically defined medium free of serum as above.
# The cells are plated at a density of 7.5×10^4 cells/cm^2 on 24-well plastic culture plates. The cultures are incubated at 37° C. and under air containing 10% CO2. The medium is not changed during the experiments and it has already been shown that this type of cell population contained more than 93% of neurons.
# [3] = low density culture, morphometric analysis
# [4] = morphometric analysis, plastic, versus control
# [5] = plates coated with thrombospondin and fibronectin, compared with the controls
Substance,"overall effect on cortical neuron cultures (aggregation, adhesion, neuritic growth) (cortical neuronal cells)",adherent cells carrying neurites relative to controls (controls 24.4%) (cortical neuronal cells; low density culture),number of neurites per cell (cortical neuronal cells; [3]),solubility [1],appearance (phenotype) of the cells ([2]; in the presence of the peptide),"neuritic growth ([2]; increasing concentrations of peptide in the culture medium, morphometric analysis)",number of NIB104 neuroblastoma cells ([2]; versus control cultures),neuritic growth and fasciculation of the neurites (spinal cord neurons),number of synaptic contacts between the neurites (spinal cord neurons),distribution (aggregation) of the neurons (spinal cord neurons; in vitro),"morphology of the neuronal culture (cortical neuronal cells; after 5 days of culture, plastic substrate coated with the peptide)",increase in the number of neuronal aggregates (cortical neuronal cells; between control culture and culture treated with the peptide),length of the neurites (cortical neuronal cells; [3]),length of the neurites per aggregate (cortical neuronal cells; [4]),number of neurites per aggregate (cortical neuronal cells; [4]),length of the neurites per aggregate (cortical neuronal cells; [5]),number of neurites per aggregate (cortical neuronal cells; [5]),"adhesion of the cells to the substrate (cortical neuronal cells; substrate coated with the peptide, 5 days of culture, versus control without peptide)"
"R-K-A-R- (RKAR) [peptide SEQ ID NO: 13, peptide for comparison, reference compound]",no representative result,–,–,–,–,–,–,–,–,–,–,–,–,–,–,–,–,–
"W-G-P-C-S-V-S-C-G- (WGPCSVSCG) [peptide SEQ ID NO: 11, second peptide according to the invention]","lower but, nevertheless, significant results",2.5 times,not,–,–,–,–,–,–,–,–,–,–,–,–,–,–,–
WSGWSSCSRSCG (cysteine pairing not given here) [peptide SEQ ID NO: 8],–,2 times,significant increase,soluble in basic aqueous medium,acquire a characteristic neuronal phenotype,gradually increases,considerably less numerous,prominent neuritic growths forming a network without fasciculation of the neurites,increase in the number of synaptic contacts,remain distributed for at least one week,aggregate and are essentially connected by bundles of long and thick neurites,9.3%,significant increase,significant increase,significant increase,significantly increased,significantly increased,adhere well to the substrate
